Results on four compounds are retold here after PMC11292196 (Cancer Research, 2024).

Each structure is given as a SMILES string. Where two headings read alike, the source gives them in different places.

The subject of experiment [1] is KMBC2 cells. As to the kind of experiment: Cell viability assay. The class given is cell-based. The settings on record: read-out: Cisplatin GI50 (d5), 5-day viability assay.
Experiment [2] relates to TCCSUP cells. As to the kind of experiment: Cell viability assay. The following applies: read-out: Cisplatin GI50 (d5), 5-day viability assay. The class given is cell-based.
Experiment [3] relates to RT4 cells. As to the kind of experiment: Cell viability assay. The experiment is classed as cell-based. The following applies: read-out: Cisplatin GI50 (d5), 5-day viability assay.
The subject of experiment [4] is J82 cells. In words: Cell viability assay. The class given is cell-based. The following applies: read-out: Cisplatin GI50 (d5), 5-day viability assay.
For experiment [5], the system named is SCaBER cells. In words: Cell viability assay. The class given is cell-based. The settings on record: read-out: Cisplatin GI50 (d5), 5-day viability assay.
For experiment [6], the system named is HT1197 cells. In words: Cell viability assay. The class given is cell-based. The following applies: read-out: Cisplatin GI50 (d5), 5-day viability assay.
For experiment [7], the system named is T24 cells. In words: Cell viability assay. The experiment is classed as cell-based. The settings on record: read-out: Cisplatin GI50 (d5), 5-day viability assay.
Experiment [8] deals with HT1376 cells. As to the kind of experiment: Cell viability assay. The class given is cell-based.
The subject of experiment [9] is BFTC905 cells. As to the kind of experiment: Cell viability assay. The class given is cell-based. The following applies: read-out: Cisplatin GI50 (d5), 5-day viability assay.
For experiment [10], the system named is UMUC3 cells. In words: Cell viability assay. The experiment is classed as cell-based. The settings on record: read-out: Cisplatin GI50 (d5), 5-day viability assay.
The subject of experiment [11] is SW1710 cells. In words: Cell viability assay. The settings on record: read-out: Cisplatin GI50 (d5), 5-day viability assay. The experiment is classed as cell-based.
In experiment [12] the test system is JMSU1 cells. As to the kind of experiment: Cell viability assay. The experiment is classed as cell-based. The settings on record: read-out: Cisplatin GI50 (d5), 5-day viability assay.
For experiment [13], the system named is Cal29 cells. As to the kind of experiment: Cell viability assay. The class given is cell-based. The settings on record: read-out: Cisplatin GI50 (d5), 5-day viability assay.
Experiment [14] relates to KARPAS-422 xenograft tumors. In words: KARPAS-422 xenograft efficacy study. The class given is in vivo. The following applies: KARPAS-422 mouse xenograft model; 25 mg/kg, PO, QD.
Where [15] appears, read: read-out: GI50, long-term cell viability assay, HT1376 cells, day 18.

For the compound `N.N.[Cl][Pt][Cl]` [Cisplatin], the GI50 is 3640 nM in experiment [1]; 220 nM in [2]; 3050 nM in [3]; 450 nM in [4]; 1200 nM in [5]; 3880 nM in experiment [6]. Also, the GI50 is 810 nM in [7]; 1950 nM in experiment [8] (read-out: Cisplatin GI50 (d5), HT1376, 5-day viability assay); 760 nM in [9]; 350 nM in experiment [10]; 2150 nM in [11]; 730 nM in experiment [12]. Besides, the GI50 in experiment [13] was 3010 nM.

For `CCN(c1cc(-c2ccc(CN3CCOCC3)cc2)cc(C(=O)NCc2c(C)cc(C)[nH]c2=O)c1C)C1CCOCC1` [Tazemetostat], in experiment [14], the “tumor response” value was “modest TGI”.

Take `Cc1ncccc1-c1cnc(NCc2c(F)ccc3c2CCO3)n2cnnc12` [MAK683]: in experiment [8] (setting [15]), the GI50 came to 73 nM.

For the compound `COc1cc(C)[nH]c(=O)c1CN1CCc2c(Cl)cc([C@H](OC)C3COC3)c(Cl)c2C1=O` [PF-06821497], in [8] (setting [15]), the GI50 is ~5 nM.
